# Data taken from ChEMBL document CHEMBL5375957, “Optimization of Novel α7 Nicotinic Acetylcholine Receptor Positive Allosteric Modulators and the Discovery of a Preclinical Development Candidate Molecule (RGH-560)” (J Med Chem, 2023).
# pEC50: −log10 of the molar value. Active and inactive are the calls of the source. The calls are words filed in the database; no cut-off is given here.
# Columns and labels:
# [1] = Kinetic solubility of compound at pH 7.4 incubated for 2 hrs by UV-HPLC analysis; format: physicochemical; conditions: buffer, read-out: Kinetic_solubility
# [2] = molecular target: T1, Neuronal acetylcholine receptor subunit alpha-7 (Homo sapiens, UniProt P36544); test: Positive allosteric modulator activity at human alpha7 nAChR expressed in Flp-In HEK293 cells assessed as increase in calcium influx at 10 uM incubated for 10 mins by fluorescence based analysis relative to control; format: cell-based
# [3] = molecular target: T1, Neuronal acetylcholine receptor subunit alpha-7; test: Positive allosteric modulator activity at human alpha7 nAChR expressed in Flp-In HEK293 cells assessed as increase in calcium influx incubated for 10 mins by fluorescence based analysis; format: cell-based
# [4] = Metabolic stability in human liver microsome assessed as intrinsic clearance measured per mg of protein incubated for 40 mins; format: ADME; conditions: liver microsomes, read-out: CLH
# [5] = Metabolic stability in Wistar rat liver microsome assessed as intrinsic clearance measured per mg of protein incubated for 40 mins; format: ADME; conditions: liver microsomes, read-out: CLH
# [6] = Metabolic stability in NMRI mouse liver microsome assessed as intrinsic clearance measured per mg of protein incubated for 40 mins; format: ADME; conditions: liver microsomes, read-out: CLH
# Mus musculus = test: Cognitive activity in scopolamine induced amnesia NMRI mouse model assessed as recognition index at 1 to 10 mg/kg, ip pretreated with compound for 30 mins followed by scopolamine induction by Y maze test; format: functional, organism-based; conditions: dose 1-10 mg/kg
# [7] = filed as positive allosteric modulator
# T1 sequence (P36544 whole entry): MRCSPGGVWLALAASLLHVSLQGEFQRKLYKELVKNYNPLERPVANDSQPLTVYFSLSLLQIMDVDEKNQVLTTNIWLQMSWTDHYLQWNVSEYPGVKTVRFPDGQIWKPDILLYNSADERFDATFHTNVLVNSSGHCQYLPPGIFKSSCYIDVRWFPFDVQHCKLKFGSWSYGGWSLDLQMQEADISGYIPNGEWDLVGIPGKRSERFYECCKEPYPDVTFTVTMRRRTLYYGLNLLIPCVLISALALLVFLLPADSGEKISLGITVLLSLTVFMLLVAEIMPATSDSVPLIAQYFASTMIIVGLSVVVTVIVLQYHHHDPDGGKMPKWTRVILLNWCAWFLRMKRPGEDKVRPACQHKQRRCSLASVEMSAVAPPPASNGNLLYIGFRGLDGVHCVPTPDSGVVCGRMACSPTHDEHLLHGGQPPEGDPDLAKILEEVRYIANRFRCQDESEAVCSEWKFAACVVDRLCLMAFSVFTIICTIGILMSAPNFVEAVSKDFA
SMILES,solubility kinetic at 2 h [1] [µM],Emax [2] [%],pEC50 [3],microsomal CLint [4] [µL/min/mg],microsomal CLint [5] [µL/min/mg],microsomal CLint [6] [µL/min/mg],"Emax [2, 7] [%]",Activity (Mus musculus)
Cn1c(Cl)cc2cc(CNC(=O)N3CC(COc4ccc(C(F)(F)F)cc4)C3)cnc21,0.2,4,–,–,–,–,–,–
Cc1cc2cc(CNC(=O)N3CC(COc4ccc(C(F)(F)F)cc4)C3)ccc2n1C,–,–,7.15,41,–,–,–,–
Cc1cc2cc(CNC(=O)N3CC4(CC(=O)c5cc(F)cc(F)c5O4)C3)ccc2[nH]1,30.9,–,–,8,80,121,–,–
Cc1cc2cc(CNC(=O)N3CC4(CC(=O)c5ccccc5O4)C3)ccc2[nH]1,51.5,–,6.85,11,52,100,–,–
NC(=O)c1cc2cc(CNC(=O)N3CC(COc4ccc(C(F)(F)F)cc4)C3)ccc2[nH]1,6.9,0,–,–,–,–,–,–
CCn1ccc2cc(CNC(=O)N3CC(COc4ccc(C(F)(F)F)cc4)C3)ccc21,0.2,–,–,28,–,–,83,–
O=C(NCc1ccc2[nH]c(C(F)F)cc2c1)N1CC(COc2ccc(C(F)(F)F)cc2)C1,41,–,6.66,27,23,–,–,–
CC(C)n1ccc2cc(CNC(=O)N3CC(COc4ccc(C(F)(F)F)cc4)C3)ccc21,0.9,1,–,–,–,–,–,–
Cn1cc(Cl)c2cc(CNC(=O)N3CC4(CC(=O)c5ccccc5O4)C3)ccc21,9.7,–,–,128,–,–,–,–
Cc1cc2cc(CNC(=O)N3CC4(CC(=O)c5ccc(F)cc5O4)C3)ccc2[nH]1,38.7,–,7.00,14,25,64,–,Active
Cc1ccc(OCC2CN(C(=O)NCc3ccc4[nH]c(C)c(C)c4c3)C2)cc1,13.4,–,6.31,323,–,–,–,–
Cc1cn(C)c2ncc(CNC(=O)N3CC(COc4ccc(C(F)(F)F)cc4)C3)cc12,14.2,–,5.92,–,–,–,–,–
Cn1cc(Cl)c2cc(CNC(=O)N3CC(COc4ccc(C(F)(F)F)cc4)C3)cnc21,7.2,–,6.41,97,–,–,–,–
Cc1cc2cc(CNC(=O)N3CC(COc4ccc(C(F)(F)F)cc4)C3)cnc2n1C,0.6,–,6.52,54,–,–,–,–
Cn1cc(C#N)c2cc(CNC(=O)N3CC(COc4ccc(C(F)(F)F)cc4)C3)cnc21,20.4,20,–,49,38,–,–,–
Cn1ccc2cc(CNC(=O)N3CC(COc4ccc(C(F)(F)F)c(F)c4)C3)ccc21,0.2,–,7.35,–,–,–,–,–
Cc1nnc(-c2cc3cc(CNC(=O)N4CC(COc5ccc(C(F)(F)F)cc5)C4)ccc3[nH]2)o1,5.1,1,–,16,14,–,–,–
Cn1ccc2cc(CNC(=O)N3CC(COc4ccc(Cl)cc4)C3)cnc21,61.1,–,6.44,34,53,57,–,–
Cn1c(C2CC2)cc2cc(CNC(=O)N3CC(COc4ccc(C(F)(F)F)cc4)C3)cnc21,0.3,0,–,–,–,–,–,–
O=C(NCc1ccc2[nH]c(C3CC3)cc2c1)N1CC(COc2ccc(C(F)(F)F)cc2)C1,1.9,3,–,25,56,–,–,–
O=C(NCc1ccc2c(ccn2CC(F)(F)F)c1)N1CC(COc2ccc(C(F)(F)F)cc2)C1,0.6,3,–,–,–,–,–,–
O=C(NCc1ccc2[nH]cc(Cl)c2c1)N1CC(COc2ccc(C(F)(F)F)cc2)C1,12,–,6.30,25,23,43,–,–
O=C1CC2(CN(C(=O)NCc3ccc4[nH]ccc4c3)C2)Oc2ccccc21,87.1,–,–,–,–,–,58,–
Cc1[nH]c2ccc(CNC(=O)N3CC4(CC(=O)c5ccccc5O4)C3)cc2c1Cl,10,–,6.34,–,–,–,–,–

SMILES,solubility kinetic at 2 h [1] [µM],Emax [2] [%],pEC50 [3],microsomal CLint [4] [µL/min/mg],microsomal CLint [5] [µL/min/mg],microsomal CLint [6] [µL/min/mg],"Emax [2, 7] [%]",Activity (Mus musculus)
Cn1ccc2cc(CNC(=O)N3CC(COc4ccc(F)c(C#N)c4)C3)ccc21,9.2,–,6.23,–,–,–,–,–
O=C1CC2(CN(C(=O)NCc3ccc4[nH]c(Cl)cc4c3)C2)Oc2ccccc21,21.1,–,6.64,22,176,178,–,–
COCc1cc2cc(CNC(=O)N3CC(COc4ccc(C(F)(F)F)cc4)C3)cnc2[nH]1,2.9,30,–,43,48,–,–,–
Cc1ccc(OCC2CN(C(=O)NCc3ccc4[nH]c5c(c4c3)CCCC5)C2)cc1,4.4,1,–,–,–,–,–,–
O=C(NCc1ccc2[nH]ccc2c1)N1CC(COc2ccc(C(F)(F)F)cn2)C1,78.1,–,6.82,37,63,78,–,–
Cn1ccc2cc(CNC(=O)N3CC(COc4ccc(F)cc4F)C3)ccc21,45.5,–,6.57,48,–,–,–,–
O=C(NCc1cnc2[nH]c(Cl)cc2c1)N1CC(COc2ccc(C(F)(F)F)cc2)C1,4.5,–,6.59,29,–,–,–,–
Cn1cc(Cl)c2cc(CNC(=O)N3CC(COc4ccc(C(F)(F)F)cc4)C3)ccc21,< 0.1,–,6.70,30,96,140,–,–
Cn1ccc2cc(CNC(=O)N3CC(COc4ccc(F)c(F)c4)C3)ccc21,1.2,–,6.82,46,–,–,–,–
Cn1cc(C#N)c2cc(CNC(=O)N3CC(COc4ccc(C(F)(F)F)cc4)C3)ccc21,5.3,–,5.66,43,–,–,–,–
O=C(NCc1cnc2[nH]ccc2c1)N1CC(COc2ccc(C(F)(F)F)cc2)C1,49.9,–,5.51,–,–,–,–,–
Cn1ccc2cc(CNC(=O)N3CC(COc4ccc(F)cc4C#N)C3)ccc21,31,–,5.55,–,–,–,–,–
Cc1cc2cc(CNC(=O)N3CC(COc4ccc(C(F)(F)F)cc4)C3)ccc2[nH]1,2,–,7.82,29,34,94,–,–
Cn1ccc2cc(CNC(=O)N3CC(COc4ccc(C(F)(F)F)cn4)C3)ccc21,0.9,–,7.40,61,–,–,–,–
Cn1c(Cl)cc2cc(CNC(=O)N3CC(COc4ccc(C(F)(F)F)cc4)C3)ccc21,0.2,7,–,–,–,–,–,–
Cn1ccc2cc(CNC(=O)N3CC(COc4ccc(C(F)(F)F)nc4)C3)ccc21,1.8,–,6.57,27,–,–,–,–
Cc1cc2cc(CNC(=O)N3CC4(CC(=O)c5cc(F)ccc5O4)C3)ccc2[nH]1,36.4,–,–,18,34,51,–,–
Cn1ccc2cc(CNC(=O)N3CC4(CC(=O)c5ccccc5O4)C3)ccc21,51.5,–,–,24,46,52,–,Active
Cn1cc(F)c2cc(CNC(=O)N3CC(COc4ccc(C(F)(F)F)nc4)C3)ccc21,0.1,–,7.26,107,–,–,–,–
O=C(NCc1ccc2[nH]ccc2c1)N1CC(COc2ccc(C(F)(F)F)cc2F)C1,16.3,–,6.60,24,39,47,–,–
Cn1ccc2cc(CNC(=O)N3CC(COc4ccc(Cl)c(Cl)c4)C3)ccc21,0.5,–,7.10,61,–,–,–,–
O=C(NCc1ccc2[nH]ccc2c1)N1CC(COc2ccc(C(F)(F)F)nc2)C1,86.8,–,5.96,–,–,–,–,–
COCCc1cc2cc(CNC(=O)N3CC(COc4ccc(C(F)(F)F)cc4)C3)ccc2n1C,0.1,0,–,–,–,–,–,–
Cn1c(C#N)cc2cc(CNC(=O)N3CC(COc4ccc(C(F)(F)F)cc4)C3)ccc21,2.4,15,–,–,–,–,–,–
